# Key:
# [1] = test system: corn; assay: Test B pre/postemergence corn; type: in vivo, Zea mays
# Procedure, shortened: (§1)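 Herbicidal effect was estimated by eye on a ten-point control scale after plants spent twelve to sixteen days in a greenhouse following soil or foliar treatment. Foliar sprays targeted plants at one to four leaves; all doses were formulated in a non-phytotoxic solvent with surfactant.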
# [2] = test system: blackgrass; assay: Test B pre/postemergence blackgrass; type: in vivo, Alopecurus myosuroides
# Procedure, shortened: as §1
# [3] = test system: purple nutsedge; assay: Test B pre/postemergence purple nutsedge; type: in vivo, Cyperus rotundus
# Procedure, shortened: as §1
# [4] = test system: duck salad; assay: Test B flood test duck salad; type: in vivo, Heteranthera limosa
# Procedure, shortened: (§2)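 Each value is a visual injury score relative to controls, with 10 meaning complete control and 0 no effect. Evaluation took place twelve to sixteen days after the 2-leaf-stage plants were treated and kept in the greenhouse.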
# [5] = test system: cocklebur; assay: Test B pre/postemergence cocklebur; type: in vivo, Xanthium strumarium
# Procedure, shortened: as §1
# [6] = test system: surinam grass; assay: Test B pre/postemergence surinam grass; type: in vivo, Brachiaria decumbens
# Procedure, shortened: as §1
# [7] = test system: smallflower flatsedge; assay: Test B flood test smallflower flatsedge; type: in vivo, Cyperus difformis
# Procedure, shortened: as §2
# [8] = test system: crabgrass; assay: Test B pre/postemergence crabgrass; type: in vivo, Digitaria sanguinalis
# Procedure, shortened: as §1
# [9] = test system: wild oat; assay: Test B pre/postemergence wild oat; type: in vivo, Avena fatua
# Procedure, shortened: as §1
# [10] = test system: bedstraw; assay: Test B pre/postemergence bedstraw; type: in vivo, Galium aparine
# Procedure, shortened: as §1
# [11] = test system: morningglory; assay: Test B pre/postemergence morningglory; type: in vivo, Ipomoea hederacea
# Procedure, shortened: as §1
# [12] = test system: pigweed; assay: Test B pre/postemergence pigweed; type: in vivo, Amaranthus retroflexus
# Procedure, shortened: as §1
# [13] = test system: rape; assay: Test B pre/postemergence rape; type: in vivo, Brassica napus
# Procedure, shortened: as §1
# [14] = test system: sugar beet; assay: Test B pre/postemergence sugar beet; type: in vivo, Beta vulgaris
# Procedure, shortened: as §1
# [15] = test system: wheat; assay: Test B pre/postemergence wheat; type: in vivo, Triticum aestivum
# Procedure, shortened: as §1
# [16] = test system: velvetleaf; assay: Test B pre/postemergence velvetleaf; type: in vivo, Abutilon theophrasti
# Procedure, shortened: as §1
# [17] = Preemergence, Rate 62 g/ha, scale of 0 to 10 where 0 is no effect and 10 is complete control
# [18] = Preemergence, Rate 125 g/ha, 0 is no effect, 10 is complete control
# [19] = Preemergence, Rate 250 g/ha, scale 0 to 10, 0 is no effect, 10 is complete control
# [20] = Preemergence, Rate 500 g/ha, scale 0 to 10 (0 no effect, 10 complete control)
# [21] = Rate 62 g/ha, Postemergence, scale of 0 to 10 where 0 is no effect and 10 is complete control
# [22] = Rate 125 g/ha, Postemergence, scale 0 to 10
# [23] = Rate 500 g/ha, Postemergence, scale 0 to 10
# [24] = Rate 62 g/ha, headed Pre-emergence (flood test species), scale 0 to 10 (0 no effect, 10 complete control)
# [25] = Rate 125 g/ha, Pre-emergence, flood test species, scale 0 to 10 where 0 is no effect and 10 is complete control
# [26] = Rate 250 g/ha, Pre-emergence, flood-test species, scale 0 to 10, 0 is no effect, 10 is complete control
smiles,measurement,setting,value
CCN(C(=O)n1oc(=O)n(C(C)C)c1=O)c1nncs1 [Compound 190],Corn plant response rating,[1]; [17],0
same,Corn plant response rating (0 to 10 scale),[1]; [18],0
same,Corn plant response rating,[1]; [19],0
same,Corn plant response rating,[1]; [20],0
same,Corn plant response rating,[1]; [21],0
same,Corn plant response rating,[1]; [22],0
same,"Plant response rating (0 to 10; 0 is no effect, 10 is complete control), Corn","[1]; Rate 250 g/ha, Postemergence",0
same,Corn plant response rating,[1]; [23],0
same,Blackgrass plant response rating,[2]; [17],0
same,Blackgrass plant response rating (0 to 10 scale),[2]; [18],0
same,Blackgrass plant response rating,[2]; [19],0
same,Blackgrass plant response rating,[2]; [20],3
same,Blackgrass plant response rating,[2]; [21],0
same,Blackgrass plant response rating,[2]; [22],0
same,"Plant response rating (0 to 10; 0 is no effect, 10 is complete control), Blackgrass","[2]; Rate 250 g/ha, Postemergence",0
same,Blackgrass plant response rating,[2]; [23],0
same,Nutsedge plant response rating,[3]; [17],0
same,Nutsedge plant response rating,[3]; [19],0
same,Nutsedge plant response rating,[3]; [20],0
same,Nutsedge plant response rating,[3]; [21],0
same,Nutsedge plant response rating,[3]; [22],0
same,"Plant response rating (0 to 10; 0 is no effect, 10 is complete control), Nutsedge","[3]; Rate 250 g/ha, Postemergence",0
same,Nutsedge plant response rating,[3]; [23],0
same,Ducksalad plant response rating,[4]; [24],0
same,Ducksalad plant response rating,[4]; [25],0
same,Ducksalad plant response rating,[4]; [26],0
same,"Plant response rating, Ducksalad","[4]; Rate 500 g/ha, headed Pre-emergence (flood test species), scale 0 to 10 (0 no effect, 10 complete control)",0
same,Cocklebur plant response rating,[5]; [17],0
same,Cocklebur plant response rating (0 to 10 scale),[5]; [18],0
same,Cocklebur plant response rating,[5]; [19],0
same,Cocklebur plant response rating,[5]; [20],0
same,Cocklebur plant response rating,[5]; [21],0
same,Cocklebur plant response rating,[5]; [22],0
same,"Plant response rating (0 to 10; 0 is no effect, 10 is complete control), Cocklebur","[5]; Rate 250 g/ha, Postemergence",0
same,Cocklebur plant response rating,[5]; [23],0
same,B. signalgrass plant response rating,[6]; [17],0
same,B. signalgrass plant response rating (0 to 10 scale),[6]; [18],0
same,B. signalgrass plant response rating,[6]; [19],0
same,B. signalgrass plant response rating,[6]; [20],0
same,B. signalgrass plant response rating,[6]; [21],0
same,B. signalgrass plant response rating,"[6]; Rate 125 g/ha, Postemergence, scale 0 (no effect) to 10 (complete control)",0
same,"Plant response rating, B. signalgrass","[6]; Rate 250 g/ha, Postemergence, scale 0 to 10, 0 is no effect, 10 is complete control",0
same,B. signalgrass plant response rating,"[6]; Rate 500 g/ha, Postemergence, scale 0 to 10, 0 no effect, 10 complete control",0
same,S. Flatsedge plant response rating,[7]; [24],0
same,S. Flatsedge plant response rating,[7]; [25],0
same,S. Flatsedge plant response rating,[7]; [26],0
same,S. Flatsedge plant response rating,"[7]; Rate 500 g/ha, Pre-emergence, flood test species, scale 0 to 10 (0 no effect, 10 complete control)",0
same,Crabgrass plant response rating,[8]; [17],0
same,Crabgrass plant response rating (0 to 10 scale),[8]; [18],0
same,Crabgrass plant response rating,[8]; [19],0
same,Crabgrass plant response rating,[8]; [20],0
same,Crabgrass plant response rating,[8]; [21],0
same,Crabgrass plant response rating,[8]; [22],0
same,"Plant response rating (0 to 10; 0 is no effect, 10 is complete control), Crabgrass","[8]; Rate 250 g/ha, Postemergence",0
same,Crabgrass plant response rating,[8]; [23],0
same,Wild oats plant response rating,[9]; [17],0
same,Wild oats plant response rating,[9]; [19],0
same,Wild oats plant response rating,[9]; [20],0
same,Wild oats plant response rating,[9]; [21],0
same,Wild oats plant response rating,[9]; [22],0
same,"Plant response rating (0 to 10; 0 is no effect, 10 is complete control), Wild oats","[9]; Rate 250 g/ha, Postemergence",0
same,Bedstraw plant response rating,[10]; [17],0
same,Bedstraw plant response rating,[10]; [19],0
same,Bedstraw plant response rating,[10]; [20],4
same,Bedstraw plant response rating,[10]; [21],0
same,Bedstraw plant response rating,[10]; [22],0
same,"Plant response rating (0 to 10; 0 is no effect, 10 is complete control), Bedstraw","[10]; Rate 250 g/ha, Postemergence",0
same,Bedstraw plant response rating,[10]; [23],0
same,Morningglory plant response rating,[11]; [17],0
same,Morningglory plant response rating (0 to 10 scale),[11]; [18],0
same,Morningglory plant response rating,[11]; [19],0
same,Morningglory plant response rating,[11]; [20],0
same,Morningglory plant response rating,[11]; [21],0
same,Morningglory plant response rating,[11]; [22],0
same,"Plant response rating (0 to 10; 0 is no effect, 10 is complete control), Morningglory","[11]; Rate 250 g/ha, Postemergence",0
same,Morningglory plant response rating,[11]; [23],0
same,Redroot pigweed plant response rating,[12]; [17],0
same,Redroot pigweed plant response rating (0 to 10 scale),[12]; [18],0
same,Redroot pigweed plant response rating,[12]; [19],0
same,Redroot pigweed plant response rating,[12]; [20],0
same,Redroot pigweed plant response rating,[12]; [21],0
same,Redroot pigweed plant response rating,[12]; [22],0
same,"Plant response rating (0 to 10; 0 is no effect, 10 is complete control), Redroot pigweed","[12]; Rate 250 g/ha, Postemergence",0
same,Redroot pigweed plant response rating,[12]; [23],0
same,Rape plant response rating,[13]; [17],0
same,Rape plant response rating (0 to 10 scale),[13]; [18],0
same,Rape plant response rating,[13]; [19],0
same,Rape plant response rating,[13]; [20],0
same,Rape plant response rating,[13]; [21],0
same,Rape plant response rating,[13]; [22],0
same,"Plant response rating (0 to 10; 0 is no effect, 10 is complete control), Rape","[13]; Rate 250 g/ha, Postemergence",0
same,Rape plant response rating,[13]; [23],0
same,Sugarbeets plant response rating,[14]; [17],0
same,Sugarbeets plant response rating (0 to 10 scale),[14]; [18],0
same,Sugarbeets plant response rating,[14]; [19],0
same,Sugarbeets plant response rating,[14]; [20],0
same,Sugarbeets plant response rating,[14]; [21],0
same,Sugarbeets plant response rating,[14]; [22],0
same,"Plant response rating (0 to 10; 0 is no effect, 10 is complete control), Sugarbeets","[14]; Rate 250 g/ha, Postemergence",0
same,Sugarbeets plant response rating,[14]; [23],0
same,Wheat plant response rating,[15]; [17],0
same,Wheat plant response rating,[15]; [19],0
same,Wheat plant response rating,[15]; [20],0
same,Wheat plant response rating,[15]; [21],0
same,Wheat plant response rating,[15]; [22],0
same,"Plant response rating (0 to 10; 0 is no effect, 10 is complete control), Wheat","[15]; Rate 250 g/ha, Postemergence",0
same,Velvetleaf plant response rating,[16]; [17],0
same,Velvetleaf plant response rating,[16]; [19],0
same,Velvetleaf plant response rating,[16]; [20],0
same,Velvetleaf plant response rating,[16]; [21],0
same,Velvetleaf plant response rating,[16]; [22],0
same,"Plant response rating (0 to 10; 0 is no effect, 10 is complete control), Velvetleaf","[16]; Rate 250 g/ha, Postemergence",0

# — patent publication US6737383B1, “Herbicidal oxadiazolidines” (priority 1999, dated 2004)
